Results published in patent publication EP0491041A1, “ANTIVIRAL DRUG” (NIPPON SHINYAKU COMPANY, LIMITED, priority 1989, dated 1991).
Values after ≈ are worked out from the molar mass of the structure shown.

Tests used:
[1] = test system: virus; assay: Antiviral action test: screening by inhibition of cell degeneration effect (CPE) in virus-infected HeLa cells; type: cell-based; settings: amount of added drug whereby the CPE became 50%, M.O.I = 0.002, culture for three days
Description: HeLa cells were subjected to subcultured by monolayer culture (Eagle's MEM-10% CS) and infected as M.O.I. (multiplicity of infection) = 0.01.
On the first day, HeLa cells were spread in a 75 cm³ flask and cultured on a one-day growth medium (Eagle's MEM-10% CS). On the second day, old medium was removed after confirming the formation of cell sheet, then M.O.I was made 0.01 PFU/cell and 0.5 ml of virus solution was added. The original virus solution was diluted with PBS-3% FCS solution. Operation of the virus inoculation was conducted by tilting for 1 hour at room temperature. After virus was inoculated on the cells, the virus-inoculated solution was removed, washed twice with 10 ml PBS and the residual virus solution was removed. Then 15 ml of maintenance medium (Eagle's MEM-1% CS) was added and cultured at 37°C for 2 days. The cells were observed from time to time and the culture was continued until cell fusion and cell rounding were confirmed. After the culture, medium was recovered which was used as a virus solution and was stored at -20°C until actual use.
The 78 cm³ flask containing HeLa cells which were subjected to a monolayer maintenance subculture was taken out, the old medium was discarded, 2-3 ml of 0.25% trypsine (Difco = 1:250)-0.02% EDTA/PBS(-) solution was added, tilted for a few seconds, the trypsine solution was removed and warmed at 37°C for 5 minutes. Then fresh medium was added, pipetted with a Komagome pipette and the cells were homogeneously dispersed.
Cells were counted using a cytometer, then fresh medium was added, diluted to make the cell concentration 5 x 10⁵ cells/ml, 2 ml of that was added to a laboratory dish of 35 mm diameter and cultured in a CO₂-incubator at 37°C for one day to prepare cell sheet.
The virus solution was diluted by a diluting solution to make diluted solutions of ten-times difference or step. The laboratory dish wherein HeLa cells were cultured on the previous day was taken out from the incubator, old medium was discarded and the cells were washed with each 2 ml of PBS twice. Properly diluted virus solution (0.2 ml) was added to each laboratory dish, subjected to a tilting at room temperature for 60 minutes immediately and virus was inoculated. Then the virus solution was removed, each 2 ml of 0.5% methylcellulose/Eagle's MEM-1% CS was added and cultured in a CO₂ incubator for 4 days.
The cultured laboratory dish was taken out from the CO₂-incubator and methylcellulose medium was removed. Then cells were washed with 2 ml of PDS, 2 ml of methanol was added, allowed to stand for 10 minutes and cells were immobilized and, at the same time, virus was sterilized. Hematoxylin dyeing solution (2 ml) was added to the laboratory dish which was immobilized with methanol, allowed to stand for about 10 minutes, washed with water and air-dried at room temperature. Since the cells destructed with virus were not dyed, plaque area was noted as a void and the plaque numbers were counted whereby virus value (PFU/ml) (Plaque forming units/ml) was measured.
HeLa cells during the subculture were dispersed with trypsine liquid-EDTA solution, 5 x 10⁵ cells/pore were embedded on a plate having 24 pores and cultured overnight at 37°C in a CO₂-incubator to prepare cell sheet.
As mentioned above, old medium was discarded, the cells were washed with PBS, the virus solution was diluted to make M.O.I = 0.002, 0.1 ml of it was added to each pore, subjected to a tilting at room temperature for 60 minutes and virus was inoculated to the cell.
Virus solution was removed from the cells after inoculation of virus, the cells were washed with 2 ml of PBS, each 1 ml of maintenance medium was added to each pore, then each 10 µl of the drug was added and the cells were cultured in a CO₂-incubator. Culture was conducted for three days.
The cells on the plate were observed under an invert microscope. Cell degeneration effect (CPE) was observed as cell fusion and making the cells round. […]

[2] = Acute toxicity test in mice; type: in vivo; settings: male mice, ddY strain, observation for one week
Description: Four male mice (ddY strain; six weeks age) were used for each drug tested.
In the intraperitoneal administration, each drug was suspended in 0.5% CMC-physiological saline solution and 0.1 ml (per 10 g body weight of mouse) of the suspension was intraperitoneally given to mouse. In the case of oral administration, each drug was suspended in 0.5% CMC-physiological saline solution and 0.2 ml (per 10 g body weight of mouse) of the suspension was given orally. Observation was started soon after administration and, after observation for one week, the mice were killed by chloroform and subjected to autopsied. LD₅₀ of each drug tested was given in the following tables wherefrom it is clear that the compounds of the present invention are safe.

| SMILES | EC50 (50% CPE inhibition) [1] | L D ₅₀ ([2]; Intraperitoneal Administration) | L D ₅₀ ([2]; Oral Administration) |
| --- | --- | --- | --- |
| CCN1C[C@H](O)[C@@H](O)[C@H](O)[C@H]1CO [B, N-ethylmoranoline, reference compound] | >100 µg/mL | – | – |
| Cc1ccc(S(=O)(=O)O)cc1.OC[C@@H]1[C@@H](O)[C@H](O)[C@@H](O)CN1CCCC=Cc1ccccc1 [Compound No. 89, N-(5-Phenyl-4-pentenyl)moranoline tosylate] | 10 µg/mL | – | – |
| OC[C@@H]1[C@@H](O)[C@H](O)[C@@H](O)CN1CCCOc1ccc(Cl)cc1 [Compound No. 93, N-[3-(4-Chlorophenoxy)propyl]moranoline] | 30 µg/mL (≈ 90.4 µM) | – | – |
| O.OC[C@@H]1[C@@H](O)[C@H](O)[C@@H](O)CN1CC=C(c1ccccc1)c1ccc(Cl)cc1 [Compound No. 99, N-(gamma-Phenyl-4-chlorocinnamyl)moranoline monohydrate] | 30 µg/mL | – | – |
| OC[C@@H]1[C@@H](O)[C@H](O)[C@@H](O)CN1CC=C(c1ccccc1)c1ccc(F)cc1 [Compound No. 100, N-(gamma-Phenyl-4-fluorocinnamyl)moranoline] | 10 µg/mL (≈ 26.8 µM) | – | – |
| CC(=CCN1C[C@H](O)[C@@H](O)[C@H](O)[C@H]1CO)c1ccc(Br)cc1 [Compound No. 101, N-(gamma-Methyl-4-bromocinnamyl)moranoline] | 30 µg/mL (≈ 80.6 µM) | – | – |
| CC(=CCN1C[C@H](O)[C@@H](O)[C@H](O)[C@H]1CO)c1ccc(Cl)c(Cl)c1 [Compound No. 102, N-(gamma-Methyl-3,4-dichlorocinnamyl)moranoline] | 10 µg/mL (≈ 27.6 µM) | – | – |
| COc1ccc(C(C)=CCN2C[C@H](O)[C@@H](O)[C@H](O)[C@H]2CO)cc1 [Compound No. 103, N-(magga-Methyl-4-methoxycinnamyl)moranoline] | 30 µg/mL (≈ 92.8 µM) | > 300 mg/kg | > 5,000 mg/kg |
| COc1ccc(C(=CCN2C[C@H](O)[C@@H](O)[C@H](O)[C@H]2CO)c2ccccc2)cc1 [Compound No. 105, N-(gamma-Phenyl-4-methoxycinnamyl)moranoline] | 100 µg/mL (≈ 259 µM) | – | – |
| C=C(C)C1CC=C(CN2C[C@H](O)[C@@H](O)[C@H](O)[C@H]2CO)CC1.Cc1ccc(S(=O)(=O)O)cc1 (some centres unmarked) [Compound No. 106, N-[(4-Isopropenyl-1-cyclohexenyl)methyl]moranoline tosylate] | 30 µg/mL | – | – |
| CC(=CCCN1C[C@H](O)[C@@H](O)[C@H](O)[C@H]1CO)c1cccc(F)c1 [Compound No. 107, N-[4-(3-Fluorophenyl)-3-pentenyl]moranoline] | 30 µg/mL (≈ 92.2 µM) | – | – |
| CC(=CCCN1C[C@H](O)[C@@H](O)[C@H](O)[C@H]1CO)c1ccc(F)cc1 [Compound No. 108, N-[4-(4-Fluorophenyl)-3-pentenyl]moranoline] | 30 µg/mL (≈ 92.2 µM) | – | – |
| CC(=CCCN1C[C@H](O)[C@@H](O)[C@H](O)[C@H]1CO)c1ccccc1C [Compound No. 109, N-[4-(2-Methylphenyl)-3-pentenyl]moranoline] | 30 µg/mL (≈ 93.3 µM) | – | – |
| CC(=CCCN1C[C@H](O)[C@@H](O)[C@H](O)[C@H]1CO)c1ccc(Cl)cc1 [Compound No. 110, N-[4-(4-Chlorophenyl)-3-pentenyl]moranoline] | 10 µg/mL (≈ 29.3 µM) | – | – |
| CC(=CCCN1C[C@H](O)[C@@H](O)[C@H](O)[C@H]1CO)c1cccc(Cl)c1 [Compound No. 111, N-[4-(3-Chlorophenyl)-3-pentenyl]moranoline] | 30 µg/mL (≈ 87.8 µM) | – | – |
| CC(=CCCN1C[C@H](O)[C@@H](O)[C@H](O)[C@H]1CO)c1ccccc1Cl [Compound No. 112, N-[4-(2-Chlorophenyl)-3-pentenyl]moranoline] | 30 µg/mL (≈ 87.8 µM) | – | – |

| SMILES | EC50 (50% CPE inhibition) [1] | L D ₅₀ ([2]; Intraperitoneal Administration) | L D ₅₀ ([2]; Oral Administration) |
| --- | --- | --- | --- |
| CC(=CCCN1C[C@H](O)[C@@H](O)[C@H](O)[C@H]1CO)c1cccc(C(F)(F)F)c1 [Compound No. 113, N-[4-(3-Trifluoromethylphenyl)-3-pentenyl]moranoline] | 30 µg/mL (≈ 79.9 µM) | – | – |
| CC(=CCCN1C[C@H](O)[C@@H](O)[C@H](O)[C@H]1CO)c1ccc(N(C)C)cc1 [Compound No. 114, N-[4-(4-Dimethylaminophenyl)-3-pentenyl]moranoline] | 30 µg/mL (≈ 85.6 µM) | – | – |
| COc1ccccc1C(C)=CCCN1C[C@H](O)[C@@H](O)[C@H](O)[C@H]1CO [Compound No. 116, N-[4-(2-Methoxyphenyl)-3-pentenyl]moranoline] | 30 µg/mL (≈ 88.9 µM) | – | – |
| CCOc1ccc(C(C)=CCCN2C[C@H](O)[C@@H](O)[C@H](O)[C@H]2CO)cc1 [Compound No. 118, N-[4-(4-Ethoxyphenyl)-3-pentenyl]moranoline] | 30 µg/mL (≈ 85.4 µM) | – | – |
| CC(=CCCN1C[C@H](O)[C@@H](O)[C@H](O)[C@H]1CO)c1cc(C(C)C)ccc1C [Compound No. 119, N-[4-(2-Methyl-5-isopropylphenyl)-3-pentenyl]moranoline] | 3 µg/mL (≈ 8.25 µM) | – | – |
| OC[C@@H]1[C@@H](O)[C@H](O)[C@@H](O)C[N+]1(CC=Cc1ccccc1Cl)CC=Cc1ccccc1Cl.[Cl-] (some centres unmarked) [Compound No. 123, N,N-Bis(2-chlorocinnamyl)moranoline ammonium chloride] | 3 µg/mL | – | – |
| Cc1ccc(C=CCCN2CC(O)C(O)C(O)C2CO)cc1F (centres unmarked) [Compound No. 133, 4-[4-(3-Fluoro-4-methylphenyl)-3-butenyl]moranoline] | 30 µg/mL (≈ 92.2 µM) | – | – |
| COc1ccc(C=CCCCN2C[C@H](O)[C@@H](O)[C@H](O)[C@H]2CO)cc1Cl [Compound No. 148, N-[5-(3-Chloro-4-methoxyphenyl)-4-pentenyl]moranoline] | 30 µg/mL (≈ 80.7 µM) | – | – |
| Cc1ccc(CCCCN2C[C@H](O)[C@@H](O)[C@H](O)[C@H]2CO)cc1F [Compound No. 150, N-[4-(3-Fluoro-4-methylphenyl)butyl]moranoline] | 30 µg/mL (≈ 91.6 µM) | – | – |
| COc1ccc(C=CCCCN2C[C@H](O)[C@@H](O)[C@H](O)[C@H]2CO)c(C)c1 [Compound No. 151, N-[5-(4-Methoxy-2-methylphenyl)-4-pentenyl]moranoline] | 30 µg/mL (≈ 85.4 µM) | – | – |
| COCCOc1cccc(C(C)=CCN2C[C@H](O)[C@@H](O)[C@H](O)[C@H]2CO)c1 [Compound No. 157, N-[3-(3-Methoxyethoxyphenyl)-2-butenyl]moranoline] | 100 µg/mL (≈ 272 µM) | – | – |
| CCOc1cccc(C(C)=CCN2C[C@H](O)[C@@H](O)[C@H](O)[C@H]2CO)c1 [Compound No. 159, N-(gamma-Methyl-3-ethoxycinnamyl)moranoline] | 30 µg/mL (≈ 88.9 µM) | – | – |
| CCOc1ccc(C(C)=CCN2C[C@H](O)[C@@H](O)[C@H](O)[C@H]2CO)cc1 [Compound No. 160, N-[3-(4-Ethoxyphenyl)-2-butenyl]moranoline] | 10 µg/mL (≈ 29.6 µM) | – | – |
| CCCCCCCCCCCCCCCCCC(=O)N1C[C@H](O)[C@@H](O)[C@H](O)[C@H]1CO [Compound No. 171, N-Stearoylmoranoline] | 30 µg/mL (≈ 69.8 µM) | – | – |
| CCCCCCCCCCCCCC(=O)N1C[C@H](O)[C@@H](O)[C@H](O)[C@H]1CO [Compound No. 174, N-Myristoylmoranoline] | 10 µg/mL (≈ 26.8 µM) | – | – |
| OC[C@@H]1[C@@H](O)[C@H](O)[C@@H](O)CN1CCCCc1ccc(Oc2ccccc2)cc1 [Compound No. 205, N-[4-(4-Phenoxyphenyl)butyl]moranoline] | – | > 300 mg/kg | > 5,000 mg/kg |
